In patent US9592221B2, “Antibacterial agents: aryl myxopyronin derivatives” (priority 2012, dated 2017):

Assays:
[1] = target: E. coli RNA polymerase σ^70 holoenzyme (Escherichia coli, UniProt P0A8T7+P0A8V2); experiment: Fluorescence-detected RNA polymerase assay, E. coli RNA polymerase; format: biochemical; conditions: read-out: IC50 E. coli RNAP
[2] = target: S. aureus RNA polymerase core enzyme, S. aureus σ^A (Staphylococcus aureus, UniProt P47768+Q2G0N5); experiment: Fluorescence-detected RNA polymerase assay, S. aureus RNA polymerase; format: biochemical; conditions: read-out: IC50 S. aureus RNAP
[3] = target: M. tuberculosis RNA polymerase core enzyme, M. tuberculosis σ^A (Mycobacterium tuberculosis, UniProt P9WGY7+P9WGY9); experiment: Fluorescence-detected RNA polymerase assay, M. tuberculosis RNA polymerase; format: biochemical; conditions: read-out: IC50 M. tuberculosis RNAP
[4] = tested on: Staphylococcus aureus ATCC 12600; experiment: MIC, spiral gradient endpoint assay, S. aureus ATCC 12600; format: cell-based; conditions: ATCC12600; Staphylococcus aureus ATCC 12600
[5] = tested on: Acinetobacter baumannii ATCC 19606; experiment: MIC, spiral gradient endpoint assay, A. baumannii; format: cell-based; conditions: ATCC19606; Acinetobacter baumannii ATCC 19606
[6] = tested on: Escherichia coli D21f2tolC; experiment: MIC, spiral gradient endpoint assay, E. coli D21f2tolC; format: cell-based; conditions: Escherichia coli, D21F2TOLC, read-out: MIC E. coli D21f2toIC
[7] = tested on: Mycobacterium tuberculosis H37Rv; experiment: MIC, microplate Alamar Blue assay, M. tuberculosis; format: cell-based
[8] = tested on: Bacillus anthracis Vollum 1b; experiment: microbe, parasite or virus in culture; format: cell-based; conditions: Bacillus anthracis, VOLLUM1B, read-out: MIC B. anthracis Vollum-1b
[9] = tested on: Francisella tularensis SCHU4; experiment: microbe, parasite or virus in culture; format: cell-based; conditions: Francisella tularensis, SCHU4, read-out: MIC F. tularensis SCHU4
[10] = tested on: Yersinia pestis C092; experiment: microbe, parasite or virus in culture; format: cell-based; conditions: Yersinia pestis, C092, read-out: MIC Y. pestis C092
[11] = tested on: Burkholderia mallei CHN7; experiment: microbe, parasite or virus in culture; format: cell-based; conditions: Burkholderia mallei, CHN7, read-out: MIC B. mallei CHN7
[12] = tested on: Burkholderia pseudomallei Human/Blood/OH/US/1994; experiment: microbe, parasite or virus in culture; format: cell-based; conditions: Burkholderia pseudomallei, read-out: MIC B. pseudomallei Human/Blood/OH
[13] = tested on: Brucella melitensis 16M; experiment: microbe, parasite or virus in culture; format: cell-based; conditions: Brucella melitensis, 16M, read-out: MIC B. melitensis 16M
[14] = tested on: methicillin-resistant Staphylococcus aureus (MRSA) strain BAA-1707 (USA-400; MW2); experiment: MIC, spiral gradient endpoint assay, MRSA BAA-1707; format: cell-based; conditions: Staphylococcus aureus; read-out: MIC S. aureus MRSA BAA-1707
[15] = tested on: methicillin-resistant Staphylococcus aureus (MRSA) strain BAA-1717 (USA-300); experiment: MIC, spiral gradient endpoint assay, MRSA BAA-1717; format: cell-based; conditions: Staphylococcus aureus; read-out: MIC S. aureus MRSA BAA-1717
[16] = tested on: rifampin-resistant Staphylococcus aureus (RRSA) strain ATCC 12600-Rif (H526N); experiment: MIC, spiral gradient endpoint assay, RRSA 12600-Rif; format: cell-based; conditions: Staphylococcus aureus, ATCC12600; read-out: MIC S. aureus RRSA 12600-Rif

S. aureus RNA polymerase core enzyme, S. aureus σ^A, sequence (Q2G0N5 whole entry): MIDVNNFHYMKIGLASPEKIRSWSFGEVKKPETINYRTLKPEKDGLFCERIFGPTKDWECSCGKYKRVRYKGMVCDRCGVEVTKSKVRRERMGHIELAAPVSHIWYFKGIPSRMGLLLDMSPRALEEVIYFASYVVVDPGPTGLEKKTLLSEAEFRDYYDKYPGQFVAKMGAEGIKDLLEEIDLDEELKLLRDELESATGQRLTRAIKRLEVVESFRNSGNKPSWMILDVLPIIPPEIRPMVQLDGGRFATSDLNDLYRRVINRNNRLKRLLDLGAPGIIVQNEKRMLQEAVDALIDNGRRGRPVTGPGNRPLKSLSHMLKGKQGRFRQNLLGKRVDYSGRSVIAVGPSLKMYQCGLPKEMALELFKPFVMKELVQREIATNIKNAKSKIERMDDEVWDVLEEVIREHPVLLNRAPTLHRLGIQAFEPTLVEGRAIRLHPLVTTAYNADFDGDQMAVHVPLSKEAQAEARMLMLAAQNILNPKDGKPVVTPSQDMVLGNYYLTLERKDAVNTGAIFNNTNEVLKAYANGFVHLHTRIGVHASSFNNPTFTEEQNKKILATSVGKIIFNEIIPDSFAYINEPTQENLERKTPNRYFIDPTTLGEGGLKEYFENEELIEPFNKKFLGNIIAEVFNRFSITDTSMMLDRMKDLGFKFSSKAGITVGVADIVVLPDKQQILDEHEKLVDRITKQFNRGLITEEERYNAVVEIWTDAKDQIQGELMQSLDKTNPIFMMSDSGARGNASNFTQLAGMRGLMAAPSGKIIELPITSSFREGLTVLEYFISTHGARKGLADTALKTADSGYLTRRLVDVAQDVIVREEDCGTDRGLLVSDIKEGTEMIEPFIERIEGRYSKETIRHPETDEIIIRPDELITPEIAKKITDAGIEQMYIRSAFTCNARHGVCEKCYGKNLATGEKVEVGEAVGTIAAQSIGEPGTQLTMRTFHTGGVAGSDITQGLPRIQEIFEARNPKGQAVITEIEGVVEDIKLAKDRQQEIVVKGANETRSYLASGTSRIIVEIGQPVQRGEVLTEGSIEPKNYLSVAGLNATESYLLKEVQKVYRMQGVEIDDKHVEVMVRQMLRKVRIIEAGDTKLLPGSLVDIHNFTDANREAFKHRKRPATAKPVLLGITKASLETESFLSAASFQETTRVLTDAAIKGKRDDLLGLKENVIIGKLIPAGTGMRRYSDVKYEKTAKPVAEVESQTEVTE
S. aureus RNA polymerase core enzyme, S. aureus σ^A, sequence (Q2FW32 whole entry, further chain): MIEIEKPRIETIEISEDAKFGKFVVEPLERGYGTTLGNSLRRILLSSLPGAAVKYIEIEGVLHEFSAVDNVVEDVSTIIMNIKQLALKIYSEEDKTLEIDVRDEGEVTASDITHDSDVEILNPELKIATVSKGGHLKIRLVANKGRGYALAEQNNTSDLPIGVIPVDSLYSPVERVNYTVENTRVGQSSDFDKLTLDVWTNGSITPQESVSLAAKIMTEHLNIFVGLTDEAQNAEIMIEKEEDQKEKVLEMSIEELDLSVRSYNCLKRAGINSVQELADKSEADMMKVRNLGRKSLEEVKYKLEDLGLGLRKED
S. aureus RNA polymerase core enzyme, S. aureus σ^A, sequence (P0A0J0 whole entry, further chain): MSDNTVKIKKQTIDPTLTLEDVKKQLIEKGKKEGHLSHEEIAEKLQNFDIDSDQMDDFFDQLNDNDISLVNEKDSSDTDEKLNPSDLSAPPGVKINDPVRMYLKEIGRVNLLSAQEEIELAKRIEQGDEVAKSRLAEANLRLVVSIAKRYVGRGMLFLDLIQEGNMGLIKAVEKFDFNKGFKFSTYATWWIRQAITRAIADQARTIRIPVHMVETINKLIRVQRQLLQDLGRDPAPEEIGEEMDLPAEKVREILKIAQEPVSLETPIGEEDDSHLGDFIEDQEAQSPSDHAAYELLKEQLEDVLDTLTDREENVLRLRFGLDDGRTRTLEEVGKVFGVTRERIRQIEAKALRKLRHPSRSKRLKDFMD
S. aureus RNA polymerase core enzyme, S. aureus σ^A, sequence (P47768 whole entry): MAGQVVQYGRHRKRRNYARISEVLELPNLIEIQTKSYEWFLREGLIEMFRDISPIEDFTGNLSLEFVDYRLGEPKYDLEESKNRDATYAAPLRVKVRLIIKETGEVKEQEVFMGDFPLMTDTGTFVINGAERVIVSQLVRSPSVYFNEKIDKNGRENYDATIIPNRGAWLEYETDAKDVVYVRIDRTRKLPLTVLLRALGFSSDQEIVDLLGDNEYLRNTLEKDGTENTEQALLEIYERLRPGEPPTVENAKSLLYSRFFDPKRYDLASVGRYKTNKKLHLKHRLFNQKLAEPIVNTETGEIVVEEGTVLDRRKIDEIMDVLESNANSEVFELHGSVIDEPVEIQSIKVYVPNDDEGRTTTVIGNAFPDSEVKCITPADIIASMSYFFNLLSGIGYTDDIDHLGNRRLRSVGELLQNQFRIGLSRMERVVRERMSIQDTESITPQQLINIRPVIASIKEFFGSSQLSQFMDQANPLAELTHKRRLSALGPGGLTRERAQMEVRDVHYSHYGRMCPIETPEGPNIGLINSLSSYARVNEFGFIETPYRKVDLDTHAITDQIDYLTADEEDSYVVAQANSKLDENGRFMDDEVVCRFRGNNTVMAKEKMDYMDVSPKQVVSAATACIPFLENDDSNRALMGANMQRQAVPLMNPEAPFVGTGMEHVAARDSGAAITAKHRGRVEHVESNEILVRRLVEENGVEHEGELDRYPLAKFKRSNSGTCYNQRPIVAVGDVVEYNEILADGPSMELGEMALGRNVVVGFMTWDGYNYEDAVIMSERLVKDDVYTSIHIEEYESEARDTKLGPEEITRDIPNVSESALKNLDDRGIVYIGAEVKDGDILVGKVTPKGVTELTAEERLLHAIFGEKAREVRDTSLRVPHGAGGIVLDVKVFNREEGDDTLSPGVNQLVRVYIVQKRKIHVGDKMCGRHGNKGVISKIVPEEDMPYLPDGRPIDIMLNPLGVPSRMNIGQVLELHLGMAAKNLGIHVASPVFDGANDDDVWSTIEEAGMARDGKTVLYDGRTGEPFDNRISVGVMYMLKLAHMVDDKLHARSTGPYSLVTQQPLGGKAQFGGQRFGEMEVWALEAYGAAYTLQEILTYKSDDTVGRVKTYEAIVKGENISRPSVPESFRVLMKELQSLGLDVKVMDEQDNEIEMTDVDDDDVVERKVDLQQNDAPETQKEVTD

SMILES: CCCCCCc1ccc2oc(C=C(C)C(=O)c3c(O)cc(C(C)CC/C=C/NC(=O)OC)oc3=O)cc2c1 (mixture of isomers) [APY20, methyl (E)-5-(3-((E/Z)-3-(5-hexylbenzofuran-2-yl)-2-methylacryloyl)-4-hydroxy-2-oxo-2H-pyran-6-yl)hex-1-enylcarbamate]
- IC50 [1]: 4 nM
- IC50 [2]: 20 nM
- IC50 [3]: 300 nM
- MIC [4]: > 40 µg/mL
- MIC [5]: > 40 µg/mL
- MIC [6]: 0.3 µg/mL
- MIC [7]: 6 µg/mL
- MIC [8]: 2 µg/mL
- MIC [9]: 0.8 µg/mL
- MIC [10]: > 50 µg/mL
- MIC [11]: 2 µg/mL
- MIC [12]: > 50 µg/mL
- MIC [13]: 0.8 µg/mL

SMILES: CCCCc1ccc(C=C(CC)C(=O)c2c(O)cc(C(C)CC/C=C/NC(=O)OC)oc2=O)s1 (mixture of isomers) [APY21, methyl (E)-5-(3-((E/Z)-2-((5-butylthiophen-2-yl)methylene)butanoyl)-4-hydroxy-2-oxo-2H-pyran-6-yl)hex-1-enylcarbamate]
- IC50 [1]: 40 nM
- IC50 [2]: 500 nM
- IC50 [3]: 300 nM
- MIC [4]: 2 µg/mL
- MIC [5]: 20 µg/mL
- MIC [6]: 0.3 µg/mL
- MIC [7]: 10 µg/mL
- MIC [8]: 3 µg/mL
- MIC [9]: 3 µg/mL
- MIC [10]: > 50 µg/mL
- MIC [11]: 6 µg/mL
- MIC [12]: 10 µg/mL
- MIC [13]: 2 µg/mL

SMILES: CCCCc1ccc2oc(C=C(C)C(=O)c3c(O)cc(C(C)CC/C=C/NC(=O)OC)oc3=O)cc2c1 (mixture of isomers) [APY25, methyl (E)-5-(3-((E/Z)-3-(5-butylbenzofuran-2-yl)-2-methylacryloyl)-4-hydroxy-2-oxo-2H-pyran-6-yl)hex-1-enylcarbamate]
- IC50 [1]: 10 nM
- IC50 [2]: 70 nM
- IC50 [3]: 600 nM
- MIC [4]: 3 µg/mL
- MIC [5]: > 40 µg/mL
- MIC [6]: 0.3 µg/mL
- MIC [7]: 6 µg/mL
- MIC [8]: 0.2 µg/mL
- MIC [9]: 3 µg/mL
- MIC [10]: 30 µg/mL
- MIC [11]: 2 µg/mL
- MIC [12]: 6 µg/mL
- MIC [13]: 0.8 µg/mL

SMILES: CCCCc1ccc2sc(C=C(C)C(=O)c3c(O)cc(C(C)CC/C=C/NC(=O)OC)oc3=O)cc2c1 (mixture of isomers) [APY26, methyl (E)-5-(3-((E/Z)-3-(5-butylbenzo[b]thiophen-2-yl)-2-methylacryloyl)-4-hydroxy-2-oxo-2H-pyran-6-yl)hex-1-enylcarbamate]
- IC50 [1]: 20 nM
- IC50 [2]: 200 nM
- IC50 [3]: 1000 nM
- MIC [4]: > 40 µg/mL
- MIC [5]: > 40 µg/mL
- MIC [6]: 0.3 µg/mL
- MIC [7]: 6 µg/mL
- MIC [8]: 2 µg/mL
- MIC [9]: 2 µg/mL
- MIC [10]: > 50 µg/mL
- MIC [11]: 6 µg/mL
- MIC [12]: > 50 µg/mL
- MIC [13]: 2 µg/mL

SMILES: CCCCCCc1csc(C=C(C)C(=O)c2c(O)cc(C(C)CC/C=C/NC(=O)OC)oc2=O)c1C (mixture of isomers) [APY27, methyl (E)-5-(3-((E/Z)-3-(4-hexyl-3-methylthiophen-2-yl)-2-methylacryloyl)-4-hydroxy-2-oxo-2H-pyran-6-yl)hex-1-enylcarbamate]
- IC50 [1]: 10 nM
- IC50 [2]: 100 nM
- IC50 [3]: 1000 nM
- MIC [4]: 6 µg/mL
- MIC [5]: 20 µg/mL
- MIC [6]: 0.3 µg/mL
- MIC [7]: 10 µg/mL
- MIC [8]: 3 µg/mL
- MIC [9]: 3 µg/mL
- MIC [10]: > 50 µg/mL
- MIC [11]: 6 µg/mL
- MIC [12]: 50 µg/mL
- MIC [13]: 2 µg/mL

SMILES: C=CCCc1ccc(C=C(C)C(=O)c2c(O)cc(C(C)CC/C=C/NC(=O)OC)oc2=O)s1 (mixture of isomers) [APY28, methyl (E)-5-(3-((E/Z)-3-(5-(but-3-enyl)thiophen-2-yl)-2-methylacryloyl)-4-hydroxy-2-oxo-2H-pyran-6-yl)hex-1-enylcarbamate]
- IC50 [1]: 40 nM
- IC50 [2]: 60 nM
- IC50 [3]: 200 nM
- MIC [4]: 2 µg/mL
- MIC [5]: 30 µg/mL
- MIC [6]: 0.3 µg/mL
- MIC [7]: 6 µg/mL
- MIC [8]: 6 µg/mL
- MIC [9]: 30 µg/mL
- MIC [10]: 30 µg/mL
- MIC [11]: 10 µg/mL
- MIC [12]: 30 µg/mL
- MIC [13]: 0.4 µg/mL

SMILES: C=CCCCCc1ccc(C=C(C)C(=O)c2c(O)cc(C(C)CC/C=C/NC(=O)OC)oc2=O)s1 (mixture of isomers) [APY29, methyl (E)-5-(3-((E/Z)-3-(5-(hex-5-enyl)thiophen-2-yl)-2-methylacryloyl)-4-hydroxy-2-oxo-2H-pyran-6-yl)hex-1-enylcarbamate]
- IC50 [1]: 40 nM
- IC50 [2]: 90 nM
- IC50 [3]: 500 nM
- MIC [4]: 4 µg/mL
- MIC [5]: 30 µg/mL
- MIC [6]: 0.3 µg/mL
- MIC [7]: 30 µg/mL
- MIC [8]: 3 µg/mL
- MIC [9]: 10 µg/mL
- MIC [10]: 10 µg/mL
- MIC [11]: 3 µg/mL
- MIC [12]: 10 µg/mL
- MIC [13]: 0.8 µg/mL

SMILES: COC(=O)N/C=C/CCC(C)c1cc(O)c(C(=O)C(C)=Cc2ccc(CCC(C)C)s2)c(=O)o1 (mixture of isomers) [APY31, methyl (E)-5-(4-hydroxy-3-((E/Z)-3-(5-isopentylthiophen-2-yl)-2-methylacryloyl)-2-oxo-2H-pyran-6-yl)hex-1-enylcarbamate]
- IC50 [1]: 10 nM
- IC50 [2]: 50 nM
- IC50 [3]: 20 nM
- MIC [4]: 0.4 µg/mL
- MIC [5]: 6 µg/mL
- MIC [6]: < 0.3 µg/mL
- MIC [7]: 3 µg/mL
- MIC [8]: 0.4 µg/mL
- MIC [9]: 6 µg/mL
- MIC [10]: 10 µg/mL
- MIC [11]: 2 µg/mL
- MIC [12]: 6 µg/mL
- MIC [13]: 0.8 µg/mL

SMILES: COC(=O)N/C=C/CCC(C)c1cc(O)c(C(=O)C(C)=Cc2ccc(CCCC3CCCCC3)s2)c(=O)o1 (mixture of isomers) [APY32, methyl (E)-5-(3-((E/Z)-3-(5-(3-cyclohexylpropyl)thiophen-2-yl)-2-methylacryloyl)-4-hydroxy-2-oxo-2H-pyran-6-yl)hex-1-enylcarbamate]
- IC50 [1]: 6 nM
- IC50 [2]: 6 nM
- IC50 [3]: 2000 nM
- MIC [4]: > 40 µg/mL
- MIC [5]: > 40 µg/mL
- MIC [6]: 0.4 µg/mL
- MIC [7]: 6 µg/mL
- MIC [8]: 2 µg/mL
- MIC [9]: 0.8 µg/mL
- MIC [10]: > 50 µg/mL
- MIC [11]: 2 µg/mL
- MIC [12]: 6 µg/mL
- MIC [13]: 2 µg/mL

SMILES: CCCCCCc1ccc(C=C(C)C(=O)c2c(O)cc(C(C)CC/C=C/NC(=O)OC)oc2=O)cc1 (mixture of isomers) [APY33, methyl (E)-5-(3-((E/Z)-3-(4-hexylphenyl)-2-methylacryloyl)-4-hydroxy-2-oxo-2H-pyran-6-yl)hex-1-enylcarbamate]
- IC50 [1]: 8 nM
- IC50 [2]: 10 nM
- IC50 [3]: 400 nM
- MIC [4]: 2 µg/mL
- MIC [5]: 20 µg/mL
- MIC [6]: 0.3 µg/mL
- MIC [7]: 6 µg/mL
- MIC [8]: 2 µg/mL
- MIC [9]: 3 µg/mL
- MIC [10]: 6 µg/mL
- MIC [11]: 2 µg/mL
- MIC [12]: 6 µg/mL
- MIC [13]: 0.4 µg/mL

SMILES: CCCCCCc1cccc(C=C(C)C(=O)c2c(O)cc(C(C)CC/C=C/NC(=O)OC)oc2=O)c1 (mixture of isomers) [APY34, methyl (E)-5-(3-((E/Z)-3-(3-hexylphenyl)-2-methylacryloyl)-4-hydroxy-2-oxo-2H-pyran-6-yl)hex-1-enylcarbamate]
- IC50 [1]: 10 nM
- IC50 [2]: 50 nM
- IC50 [3]: 3000 nM
- MIC [4]: > 40 µg/mL
- MIC [5]: 10 µg/mL
- MIC [6]: 0.3 µg/mL
- MIC [7]: 30 µg/mL
- MIC [8]: 3 µg/mL
- MIC [9]: 6 µg/mL
- MIC [10]: > 50 µg/mL
- MIC [11]: 3 µg/mL
- MIC [12]: 30 µg/mL
- MIC [13]: 3 µg/mL

SMILES: COC(=O)N/C=C/CCC(C)c1cc(O)c(C(=O)C(C)=Cc2ccc(OC(C)C)cc2)c(=O)o1 (mixture of isomers) [APY66, methyl (E)-5-(4-hydroxy-5-((E/Z)-3-(4-isopropoxyphenyl)-2-methylacryloyl)-6-oxo-6H-pyran-2-yl)hex-1-enylcarbamate]
- IC50 [1]: 1000 nM
- MIC [4]: 2 µg/mL
- MIC [14]: 2 µg/mL
- MIC [15]: 2 µg/mL
- MIC [16]: 3 µg/mL
- MIC [5]: > 40 µg/mL
- MIC [6]: 0.8 µg/mL
- MIC [7]: 6 µg/mL
- MIC [8]: 10 µg/mL
- MIC [9]: > 50 µg/mL
- MIC [11]: > 50 µg/mL
- MIC [12]: > 50 µg/mL
- MIC [13]: 10 µg/mL

SMILES: COC(=O)N/C=C/CCC(C)c1cc(O)c(C(=O)C(C)=Cc2ccc(CCC(C)C)cc2)c(=O)o1 (mixture of isomers) [APY73, methyl (E)-5-(4-hydroxy-5-((E/Z)-3-(4-isopentylphenyl)-2-methylacryloyl)-6-oxo-6H-pyran-2-yl)hex-1-enylcarbamate]
- IC50 [1]: 40 nM
- MIC [4]: 0.6 µg/mL
- MIC [14]: 1 µg/mL
- MIC [15]: 1 µg/mL
- MIC [16]: 2 µg/mL
- MIC [5]: > 40 µg/mL
- MIC [6]: 0.3 µg/mL
- MIC [8]: 2 µg/mL
- MIC [9]: 10 µg/mL
- MIC [11]: 50 µg/mL
- MIC [12]: 50 µg/mL
- MIC [13]: 3 µg/mL
